Paper PMC7857147 (Biochemistry, 2019)

B1: Methanobrevibacter smithii Dph2 (enzyme, UniProt A5UMY5 1-334, looked up)
chain: MSMYNMDLDKVIRKINKKGARTVGLQFPEGLKMQAVKIAKAIESQTPATVIISGDPCFGACDVSDYKMKGSVDLIVHYGHTPLPLKYEVPTLFIEAFSNIDVKKDLEKCLEKLEDYSKIALVTTTQHLHLLNEIKDYLEDNGKEVVLGSSKNTKKGQVLGCNFSSIKNLDAEVYLFIGSGNFHPLGIYLFTKSPVLALDPYNSEIRDISAFADRILRIRFARITKAREAEKWGIIVSSKEGQYRMKLAKEIKKILEDNKMEAYIIMADNINPDILLPYMELDAFVVSACPRIAIDDSQMYKKPLLTPQELEIVLNKRQWENYQLDEILFHERYK

How the values were obtained:
PhDph2 = PhDph2 (Pyrococcus horikoshii, UniProt O58832, R289A); experiment: HPLC of SAM cleavage to MTA; format: biochemical; conditions: 60 uM SAM, 1 mM dithionite, pH 7.4, 65 °C, 10 min, no EF-2, anaerobic
PhDph2, sequence (O58832 whole entry R289A): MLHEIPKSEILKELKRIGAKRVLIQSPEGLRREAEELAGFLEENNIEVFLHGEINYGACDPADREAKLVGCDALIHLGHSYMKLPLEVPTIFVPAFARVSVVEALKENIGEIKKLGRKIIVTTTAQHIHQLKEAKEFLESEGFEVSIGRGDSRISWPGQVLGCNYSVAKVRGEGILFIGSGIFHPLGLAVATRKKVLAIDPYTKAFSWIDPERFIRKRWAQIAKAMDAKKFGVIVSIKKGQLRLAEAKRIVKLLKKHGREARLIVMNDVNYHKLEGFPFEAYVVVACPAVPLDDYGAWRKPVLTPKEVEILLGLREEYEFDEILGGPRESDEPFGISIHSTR

crystal structure = biological target: the molecule itself; experiment: crystal structure

| Molecule | HPLC of SAM cleavage to MTA (PhDph2) | stoichiometry N (crystal structure) |
| --- | --- | --- |
| C[S+](CC[C@H](N)C(=O)O)C[C@H]1O[C@@H](n2cnc3c(N)ncnc32)[C@H](O)[C@@H]1O (some centres unmarked) [SAM] | the R289A mutant still had SAM cleavage activity | – |
| B1 | – | 2 |
